# Measurements: patent US20240317752A1, “6-SUBSTITUTED-9H-PURINE DERIVATIVES AND RELATED USES” (Black Diamond Therapeutics, Inc., priority 2021, published 2024)
# Target: T1, BaF3 BRAF-KIAA1549 fusion cells (Homo sapiens, UniProt P15056)
# T1 construct: The BRAF-KIAA1549 fusion mutant was subcloned into pMXs-IRES-Blasticidin (RTV-016, Cell Biolabs, San Diego, CA); fused on or other part: Q9HCM3 (UPF0606 protein KIAA1549)
# Assay: BaF3 BRAF-KIAA1549 fusion cell proliferation assay (CellTiterGlo)
# Type: cell-based
# Settings: 96 hours incubation, potency code
# Protocol: Retroviral Production: The BRAF-KIAA1549 fusion mutant was subcloned into pMXs-IRES-Blasticidin (RTV-016, Cell Biolabs, San Diego, CA). Retrovirus was produced by transfection of HEK 293T cells with the retroviral BRAF mutant expression vector pMXs-IRES-Blasticidin (RTV-016, Cell Biolabs), pCMV-Gag-Pol vector and pCMV-VSV-G-Envelope vector. Briefly, HEK 293T cells were plated in Poly-D-lysine coated 6-well plate (2.5×10^5 cells per well) and incubated overnight. The next day, retroviral plasmids (1 μg of BRAF-KIAA fusion mutant, 0.32 μg of pCMV-Gag-Pol and 0.165 μg pCMV-VSV-G) were mixed in 300 μL of Optimem (31985, Life Technologies). The mixture was incubated at room temperature for 5 minutes and then added to Optimem containing transfection reagent Lipofectamine (11668, Invitrogen) and incubated for 20 minutes. The mixture was then added dropwise to HEK 293T cells. The next day the medium was replaced with fresh culture medium and retrovirus was harvested at 24 hours.
# Generation of BRAF-KIAA1549 fusion stable cell line: BaF3 cells were plated in V-bottom 96 well plate (COSTAR #3894) in 80 μL of RPMI/10% FBS and 0.01 ng/ml mouse IL-3; supplemented with 8 μg/mL polybrene (4×10^4 cells/well). Cells were transduced with 20 μL of BRAF-KIAA1549 fusion viral supernatant by centrifuging for 30 minutes at 1000 rpm. Cells were placed in a 37° C. incubator overnight. Next day 100 μL of RPMI/10% FBS and 0.01 ng/ml mouse IL-3 was added. After 24 hours, 100 μL of cells were transferred to a 24 well plate containing 900 μL of RPMI/10% FBS and 15 μg/mL Blasticidin. Contents of the 24 well plate were sampled for cell viability via CellTiterGlo (Promega) over a 2-week period.
# Assay for cell proliferation: BaF3 BRAF-KIAA1549 fusion cells were resuspended at 1.5×10^5c/mL in RPMI containing 10% Heat Inactivated FBS, 1% L-glutamine and dispensed in duplicate ([…]) into 384 well plates. To determine the effect of compound on cell proliferation, BaF3 BRAF-KIAA1549 fusion cells were incubated for 96 hours in the presence of vehicle control (DMSO) or compound at varying concentrations. Inhibition of cell growth was determined by luminescent quantification (Envision by Perkin Elmer) of intracellular ATP content using CellTiterGlo (Promega), according to the protocol provided by the manufacturer. To determine the IC50 values, the vehicle-treated cells were normalized as viable cells and analyzed using the CDD Vault, Collaborative Drug Discovery, Burlingame, CA (the Levenberg-Marquardt algorithm; Levenberg, K., […]; Marquardt, D., 1963).
# Tables A1 and A2 assign each compound a code for potency in the BaF3 BRAF-KIAA1549 fusion cell proliferation assay: A, B, C, or D. According to the code, A represents an IC50 value <20 nM; B represents an IC50 value ≥20 nM and <100 nM; C represents an IC50 value ≥100 nM and <500 nM; and D represents an IC50 value ≥500 nM.
# T1 sequence (P15056 whole entry, change not shown, the tested form may be a part): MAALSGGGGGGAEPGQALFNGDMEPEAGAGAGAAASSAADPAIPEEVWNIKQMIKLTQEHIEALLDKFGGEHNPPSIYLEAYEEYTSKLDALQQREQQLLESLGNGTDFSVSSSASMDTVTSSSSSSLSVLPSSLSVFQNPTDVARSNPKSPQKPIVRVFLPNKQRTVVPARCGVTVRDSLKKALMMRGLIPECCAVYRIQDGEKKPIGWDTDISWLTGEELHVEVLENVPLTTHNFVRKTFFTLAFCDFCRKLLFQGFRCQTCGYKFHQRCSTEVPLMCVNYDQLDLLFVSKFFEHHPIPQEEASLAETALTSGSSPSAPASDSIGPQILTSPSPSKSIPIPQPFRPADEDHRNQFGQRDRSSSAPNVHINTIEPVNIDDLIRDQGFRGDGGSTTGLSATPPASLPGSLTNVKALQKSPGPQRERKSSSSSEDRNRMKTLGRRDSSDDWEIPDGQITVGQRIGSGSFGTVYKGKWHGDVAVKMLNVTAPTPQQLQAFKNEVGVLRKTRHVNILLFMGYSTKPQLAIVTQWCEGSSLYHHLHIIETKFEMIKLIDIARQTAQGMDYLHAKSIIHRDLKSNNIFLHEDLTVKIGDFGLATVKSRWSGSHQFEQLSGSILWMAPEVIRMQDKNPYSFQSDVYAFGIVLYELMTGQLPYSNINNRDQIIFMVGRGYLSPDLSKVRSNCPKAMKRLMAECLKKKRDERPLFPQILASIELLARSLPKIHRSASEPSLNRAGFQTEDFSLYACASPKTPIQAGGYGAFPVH
row,SMILES,GI50
1,"Cc1ccc(NC(=O)c2cc(C(F)(F)F)cc(OCCO)n2)cc1Nc1ncccc1-c1ncnc2[nH]cnc12 [IA-98, N-(3-((3-(9H-purin-6-yl)pyridin-2-yl)amino)-4-methylphenyl)-6-(2-hydroxyethoxy)-4-(trifluoromethyl)picolinamide]",< 20 nM
2,"Cc1ccc(NC(=O)c2ccnc(C3(C#N)CCC3)c2)cc1Nc1ncccc1-c1ncnc2[nH]cnc12 [Compound I-66, N-(3-((3-(9H-purin-6-yl)pyridin-2-yl)amino)-4-methylphenyl)-2-(1-cyanocyclobutyl)isonicotinamide]",< 20 nM
3,"Cc1ccc(NC(=O)c2ccnc(C3CC3)c2)cc1Nc1ncccc1-c1ncnc2[nH]cnc12 [Compound I-19, N-(3-((3-(9H-purin-6-yl)pyridin-2-yl)amino)-4-methylphenyl)-2-cyclopropylisonicotinamide]",< 20 nM
4,Cc1ccc(NC(=O)c2cc(C(F)(F)F)ccn2)cc1Nc1nccc(C)c1-c1ncnc2[nH]cnc12 [IA-152],≥ 500 nM
5,"Cc1ccc(NC(=O)C[C@H]2CCO[C@H](C(F)(F)F)C2)cc1Nc1ncccc1-c1ncnc2[nH]cnc12 (single isomer, unassigned) [IA-147]",20 to 100 nM
6,"Cc1ccc(NC(=O)CN2CCN3CCC2C3)cc1Nc1ncccc1-c1ncnc2[nH]cnc12 (stereo not shown) [Compound I-89, N-(3-((3-(9H-purin-6-yl)pyridin-2-yl)amino)-4-methylphenyl)-2-(1,4-diazabicyclo[3.2.1]octan-4-yl)acetamide]",≥ 500 nM
7,"Cc1ccc(NC(=O)c2cnc(C(F)(F)F)c(C#N)c2)cc1Nc1ncccc1-c1ncnc2[nH]cnc12 [Compound I-70, N-(3-((3-(9H-purin-6-yl)pyridin-2-yl)amino)-4-methylphenyl)-5-cyano-6-(trifluoromethyl)nicotinamide]",20 to 100 nM
8,"Cc1ccc(NC(=O)c2cc(C(F)(F)F)c(OC3COC3)cn2)cc1Nc1ncccc1-c1ncnc2[nH]cnc12 [IA-95, N-(3-(3-(9H-purin-6-yl)pyridin-2-ylamino)-4-methylphenyl)-5-(oxetan-3-yloxy)-4-(trifluoromethyl)picolinamide]",< 20 nM
9,"Cc1ccc(NC(=O)CC2CCCN(C)CC2)cc1Nc1ncccc1-c1ncnc2[nH]cnc12 (stereo not shown) [IA-132, N-(3-(3-(9H-purin-6-yl)pyridin-2-ylamino)-4-methylphenyl)-2-(1-methylazepan-4-yl)acetamide]",≥ 500 nM
10,"Cc1nc2c(-c3cccnc3Nc3cc(NC(=O)c4cc(C(F)(F)F)c(OCCO)cn4)ccc3C)ncnc2[nH]1 [IA-129, 5-(2-hydroxyethoxy)-N-(4-methyl-3-((3-(8-methyl-9H-purin-6-yl)pyridin-2-yl)amino)phenyl)-4-(trifluoromethyl)picolinamide]",< 20 nM
11,"Cc1ccc(NC(=O)c2cc(C(F)(F)F)ccn2)cc1Nc1ncccc1-c1ncnc2[nH]c(OCCO)nc12 [IA-125, N-(3-(3-(8-(2-hydroxyethoxy)-9H-purin-6-yl)pyridin-2-ylamino)-4-methylphenyl)-4-(trifluoromethyl)picolinamide]",20 to 100 nM
12,"Cc1ccc(NC(=O)c2cc(C(F)(F)F)c(C)cn2)cc1Nc1ncccc1-c1ncnc2[nH]cnc12 [IA-114, N-(3-((3-(9H-purin-6-yl)pyridin-2-yl)amino)-4-methylphenyl)-5-methyl-4-(trifluoromethyl)picolinamide]",< 20 nM
13,"Cc1ccc(NC(=O)c2ccc(C(F)(F)F)c(Cl)c2)cc1Nc1ncccc1-c1ncnc2[nH]cnc12 [Compound I-33, N-(3-((3-(9H-purin-6-yl)pyridin-2-yl)amino)-4-methylphenyl)-3-chloro-4-(trifluoromethyl)benzamide]",20 to 100 nM
14,"C#Cc1cc(C(=O)Nc2ccc(C)c(Nc3ncccc3-c3ncnc4[nH]cnc34)c2)ccc1Cl [Compound I-36, N-(3-((3-(9H-purin-6-yl)pyridin-2-yl)amino)-4-methylphenyl)-4-chloro-3-ethynylbenzamide]",< 20 nM
15,"Cc1nc2c(-c3cccnc3Nc3cc(NC(=O)c4ccnc(C(C)(C)C#N)c4)ccc3C)ncnc2[nH]1 [IA-127, 2-(2-cyanopropan-2-yl)-N-(4-methyl-3-((3-(8-methyl-9H-purin-6-yl)pyridin-2-yl)amino)phenyl)isonicotinamide]",< 20 nM
16,"Cc1ncc(NC(=O)c2ccnc(C3(F)CC3)c2)cc1Nc1ncccc1-c1ncnc2[nH]cnc12 [Compound I-61, N-(5-((3-(9H-purin-6-yl)pyridin-2-yl)amino)-6-methylpyridin-3-yl)-2-(1-fluorocyclopropyl)isonicotinamide]",20 to 100 nM
17,"Cc1c(F)cc(NC(=O)c2cc(C(F)(F)F)ccn2)cc1Nc1ncccc1-c1ncnc2[nH]cnc12 [Compound I-29, N-(3-(3-(9H-purin-6-yl)pyridin-2-ylamino)-5-fluoro-4-methylphenyl)-4-(trifluoromethyl)picolinamide]",20 to 100 nM
18,"Cc1ccc(NC(=O)C[C@@H]2CCN[C@H](C(F)(F)F)C2)cc1Nc1ncccc1-c1ncnc2[nH]cnc12 (single isomer, unassigned) [IA-142]",100 to 500 nM
19,"Cc1ccc(NC(=O)c2cc(C(F)(F)F)c(OC3CNC3)cn2)cc1Nc1ncccc1-c1ncnc2[nH]cnc12 [IA-96, N-(3-(3-(9H-purin-6-yl)pyridin-2-ylamino)-4-methylphenyl)-5-(azetidin-3-yloxy)-4-(trifluoromethyl)picolinamide]",20 to 100 nM
20,"CCc1ccc(NC(=O)c2cc(C(F)(F)F)ccn2)cc1Nc1ncccc1-c1ncnc2[nH]cnc12 [Compound I-68, N-(3-((3-(9H-purin-6-yl)pyridin-2-yl)amino)-4-ethylphenyl)-4-(trifluoromethyl)picolinamide]",20 to 100 nM
21,"Cc1ccc(NC(=O)c2ccc(Cl)c(C(C)(C)C#N)c2)cc1Nc1ncccc1-c1ncnc2[nH]cnc12 [Compound I-37, N-(3-((3-(9H-purin-6-yl)pyridin-2-yl)amino)-4-methylphenyl)-4-chloro-3-(2-cyanopropan-2-yl)benzamide]",20 to 100 nM
22,"Cc1ccc(C(=O)Nc2ccc(C)c(Nc3ncccc3-c3ncnc4[nH]cnc34)c2)cc1 [Compound I-27, N-(3-((3-(9H-purin-6-yl)pyridin-2-yl)amino)-4-methylphenyl)-4-methylbenzamide]",20 to 100 nM
23,"Cc1ccc(NC(=O)CC2CCCC(C(F)(F)F)C2)cc1Nc1ncccc1-c1ncnc2[nH]cnc12 (stereo not shown) [Compound I-47, N-(3-((3-(9H-purin-6-yl)pyridin-2-yl)amino)-4-methylphenyl)-2-(3-(trifluoromethyl)cyclohexyl)acetamide]",< 20 nM
24,"Cc1ccc(NC(=O)CN2CC[C@H](C(F)(F)F)C2)cc1Nc1ncccc1-c1ncnc2[nH]cnc12 [IA-109, (S)—N-(3-((3-(9H-purin-6-yl)pyridin-2-yl)amino)-4-methylphenyl)-2-(3-(trifluoromethyl)pyrrolidin-1-yl)acetamide]",< 20 nM
25,"Cc1c(F)cc(C(=O)Nc2cccc(C(F)(F)F)c2)cc1Nc1ncccc1-c1ncnc2[nH]cnc12 [Compound I-53, 3-((3-(9H-purin-6-yl)pyridin-2-yl)amino)-5-fluoro-4-methyl-N-(3-(trifluoromethyl)phenyl)benzamide]",20 to 100 nM
26,"Cc1ccc(NC(=O)CN2CCCC(C(F)(F)F)C2)cc1Nc1ncccc1-c1ncnc2[nH]cnc12 (stereo not shown) [Compound I-77, N-(3-((3-(9H-purin-6-yl)pyridin-2-yl)amino)-4-methylphenyl)-2-(3-(trifluoromethyl)piperidin-1-yl)acetamide]",< 20 nM
27,"Cc1c(F)cc(C(=O)Nc2cccc(C3(C#N)CC3)c2)cc1Nc1ncccc1-c1ncnc2[nH]cnc12 [Compound I-60, 3-((3-(9H-purin-6-yl)pyridin-2-yl)amino)-N-(3-(1-cyanocyclopropyl)phenyl)-5-fluoro-4-methylbenzamide]",< 20 nM
28,"Cc1ccc(NC(=O)c2cc(C3CC3)ccn2)cc1Nc1ncccc1-c1ncnc2[nH]cnc12 [Compound I-55, N-(3-(3-(9H-purin-6-yl)pyridin-2-ylamino)-4-methylphenyl)-4-cyclopropylpicolinamide]",< 20 nM
